Data as given in patent US11959083B2, “Immunosuppression-reverting oligonucleotides inhibiting the expression of CD39” (Secarna Pharmaceuticals GmbH & Co. KG, priority 2016, dated 2024).
l = locked nucleic acid (LNA); d = 2'-deoxy (DNA)

Columns and labels:
[1] = molecular target: T1, hCD39 (Homo sapiens, UniProt P49961); assay: ATP degradation in JIYOYE cells after hCD39 knockdown (ATP Bioluminescence Assay); format: cell-based; details: 5 μM oligonucleotide 6 days or 20 μM ARL67156 1 h; 2 μM ATP added
T1 construct: endogenous in cells; host or cells: JIYOYE cells
T1 sequence (P49961 1-510): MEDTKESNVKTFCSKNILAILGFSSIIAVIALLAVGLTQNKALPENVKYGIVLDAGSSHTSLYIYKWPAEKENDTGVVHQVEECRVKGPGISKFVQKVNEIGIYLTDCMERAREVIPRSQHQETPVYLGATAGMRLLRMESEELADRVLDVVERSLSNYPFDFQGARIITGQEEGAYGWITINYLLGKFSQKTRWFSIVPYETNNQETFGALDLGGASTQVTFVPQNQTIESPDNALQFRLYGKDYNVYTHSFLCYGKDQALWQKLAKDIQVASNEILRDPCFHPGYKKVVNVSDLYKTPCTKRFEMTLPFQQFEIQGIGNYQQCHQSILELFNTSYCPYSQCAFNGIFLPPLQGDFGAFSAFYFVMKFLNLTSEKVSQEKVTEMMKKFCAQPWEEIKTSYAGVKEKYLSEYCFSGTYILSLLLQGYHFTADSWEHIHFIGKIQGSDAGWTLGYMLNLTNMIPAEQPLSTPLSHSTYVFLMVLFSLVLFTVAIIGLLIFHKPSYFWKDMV
Description: FIG. 10A-10C depict effects of hCD39 knockdown on viability and ATP concentration in JIYOYE cells. JIYOYE cells were treated with the indicated antisense oligonucleotide A04040H (SEQ ID No.3) or neg1 for 6 days in total at 5 μM. Medium was replaced with fresh oligonucleotide-containing medium after 3 days and hCD39 protein knockdown efficacy was analyzed on day 6 by flow cytometry. Residual hCD39 expression and viability of oligonucleotide-treated cells is depicted compared to untreated cells (FIG. 10A-10B). After 6 days, 20 μM of the CD39 small molecular inhibitor ARL67156 trisodium salt was added to no ASO treated cells and incubated for 1 h at 37° C. Then, 2 μM of ATP was added to cells or cell culture medium without cells from each condition and ATP concentration of cell supernatants or cell culture medium was determined after 30 min using the ATP Bioluminescence Assay Kit (Roche) (FIG. 10C).
Adenosine is one major immunosuppressive molecule generated during ATP degradation by hCD39. ATP can be detected by an ATP Bioluminescence Assay (ATP Bioluminescence Assay Kit CLS II; Roche). JIYOYE cells were treated with 5 μM antisense oligonucleotide A04040H (SEQ ID No. 3) or the negative control oligonucleotide neg1 for 6 days (3+3). After 3 days, RPMI-1640 medium was replaced with fresh RPMI-1640 medium containing 5 μM of oligonucleotide. Protein knockdown efficacy (FIG. 10A) and viability (FIG. 10B) were analyzed after 6 days by flow cytometry. […] The same day, cells that were not treated with any antisense oligonucleotide were incubated for 1 hr at 37° C. with 20 μM of the CD39 small molecular inhibitor ARL67156 trisodium salt (TOCRIS). Then, 2 μM of ATP was added to cells or cell culture medium without cells derived from each condition and ATP concentration was measured in the cell supernatants or in cell culture medium after 30 min. […] Table 14 presents the effect of hCD39 knockdown on relative ATP levels in the cell culture supernatants of JIYOYE cells: […]

[2] = system: human CD8+ T cells; assay: Proliferation and absolute cell numbers of human CD8+ T cells in presence or absence of extracellular ATP; format: cell-based; details: 5 μM oligonucleotide 5 days or 20 μM ARL67156 24 h
Description: FIG. 12A-12C depict human CD8^+ T cells which were labelled with cell proliferation dye, activated with anti-CD3 and treated with 5 μM of the antisense oligonucleotide A04040H (black column) or the control oligonucleotide S6 (white column) for a total treatment time of 5 days. In the vehicle control (striped column), cells were activated with anti-CD3 only. Subsequently, 400 μM of ATP or vehicle were added to cells on day 3 and day 4 after start of oligonucleotide treatment. Furthermore, as additional control, the small molecular CD39-inhibitor ARL67156 trisodium salt was added at 20 μM to cells on day 4, for an incubation time of 24 h (checked column). On day 5 after start of oligonucleotide treatment, (FIG. 12A) CD39 protein expression, (FIG. 12B) proliferation and (FIG. 12C) absolute cell numbers of CD8^+ T cells were analyzed using Flow Cytometry. Depicted is the mean of triplicate wells+/−SD.
In cancer, ATP is released from tumor cells for example after cell death induced by chemotherapy or radiation therapy. Since the CD39-CD73 axis plays an important role for T cell function the effects of A04040H on T cell proliferation in the presence or absence of extracellular ATP were investigated. Human CD8^+ T cells were labelled with cell proliferation dye, activated with anti-CD3 and treated with 5 μM of the antisense oligonucleotide A04040H or the control oligonucleotide S6 for a total treatment time of 5 days. In the vehicle control, cells were activated with anti-CD3 only. Subsequently, 400 μM of ATP or vehicle were added to cells on day 3 and day 4 after start of oligonucleotide treatment. Furthermore, as additional control, the small molecular CD39-inhibitor ARL67156 trisodium salt was added at 20 μM to cells on day 4 for an incubation time of 24 h. On day 5 after start of oligonucleotide treatment, CD39 protein expression, proliferation, and absolute cell numbers of CD8^+ T cells were analyzed using Flow Cytometry.

[3] = system: mCD39 mRNA; assay: In vivo mCD39 mRNA knockdown in spleens of C57BL/6 mice; parameters: species or system mouse; details: day 26, compared to neg 1 treated mice
Description: FIGS. 15A and 15B depict CD39 mRNA expression levels in spleens from C57BL/6 mice treated by subcutaneous injections of either A04011MR or the negative control oligonucleotide neg1 at doses of 25 mg/kg or 10 mg/kg on days 1, 2, 3, 4, 5, 9, 12, 16, and 19 (5 mice/group). Expression values were normalized to expression values of the housekeeping gene HPRT1.
The potent mCD39 ASO A04011MR was selected and its in vivo knockdown capacity in C57BL/6 mice was analyzed. C57BL/6 mice were treated by subcutaneous injections of either A04011MR or the negative control oligonucleotide neg1 at doses of 25 mg/kg or 10 mg/kg on days 1, 2, 3, 4, 5, 9, 12, 16, and 19 (5 mice/group). Seven days after the last ASO treatment (day 26), mice were sacrificed and spleens were sampled for CD39 mRNA analysis. The results depicted in FIG. 15 show CD39 mRNA expression levels in spleens of A04011MR or neg1-treated mice.

[4] = system: mCD39 mRNA; assay: mCD39 mRNA knockdown efficacy screen in A20 cells (single dose, gymnotic delivery, QuantiGene Singleplex); format: cell-based, mouse; details: 10 μM, three days, normalized to HPRT1
Description: FIG. 14-1 and 14-2 show mCD39 mRNA knockdown efficacy of mCD39 antisense oligonucleotides in the murine cancer cell line A20 (mouse B cell lymphoma). A20 cells were treated with a single dose of 10 μM of the respective antisense oligonucleotide. As negative control, cells were treated with neg1, an antisense oligonucleotide having the sequence CGTTTAGGCTATGTACTT (SEQ ID NO:99). Residual mCD39 mRNA expression relative to untreated cells is depicted. Expression values were normalized to expression of the housekeeping gene HPRT1.
In order to analyze the efficacy of mCD39 antisense oligonucleotides with regard to the knockdown of mCD39 mRNA expression in a cancer cell line, A20 (mouse B cell lymphoma, ATCC) cells were treated with a single dose (concentration: 10 μM without addition of any transfection reagent; this process is called gymnotic delivery) of the respective antisense oligonucleotide as indicated in FIG. 14. As control, cells were treated with neg1, an antisense oligonucleotide having the sequence CGTTTAGGCTATGTACTT (SEQ ID NO:99). mCD39 and HPRT1 mRNA expression was analyzed after three days using the QuantiGene Singleplex assay (Affymetrix) and mCD39 expression values were normalized to HPRT1 expression values.

[5] = system: mCD39 protein; assay: In vivo mCD39 protein knockdown in tumor-infiltrating immune cells, syngeneic MC38 mouse tumor model; details: MC38 tumor-bearing C57BL/6 mice, 20, 10, 5 mg/kg subcutaneous, day 16, compared to the controls
Description: FIGS. 16A and 16B show CD39 protein expression on tumor infiltrating regulatory T cells (Tregs) (FIG. 16A) and tumor associated macrophages (TAMs) (FIG. 16B) from oligonucleotide-treated mice in relation to tumors of untreated mice.
The potent mCD39 antisense oligonucleotide A04011MR was selected and its in vivo knockdown capacity in a subcutaneous syngeneic murine tumor model was analyzed. Therefore, 5×10^5 MC38 wt tumor cells were injected subcutaneously into C57BL/6 mice. Once tumors reached sizes between 50-70 mm^3, mice were treated systemically by subcutaneous injections with different doses of A04011MR (20 mg/kg; 10 mg/kg; 5 mg/kg) or with the negative control oligonucleotide neg1 (20 mg/kg) on days 1, 2, 3, 4, 5, 9, and 12 (4 mice/per group). As additional control, MC-38 tumor-bearing mice were left untreated. Four days after the last treatment with antisense oligonucleotide (day 16), tumors were isolated in order to analyze CD39 protein expression in subtypes of tumor-infiltrating immune cells using flow cytometry. FIGS. 16A and 16B depict CD39 protein expression on tumor-infiltrating regulatory T cells (Tregs) (FIG. 16A) and tumor associated macrophages (TAMs) (FIG. 16B) from oligonucleotide-treated mice in relation to tumors of untreated mice.

[6] = system: hCD39 mRNA; assay: hCD39 mRNA knockdown efficacy screen in A-172 cells (single dose, gymnotic delivery, QuantiGene Singleplex); format: cell-based, human; details: 10 μM, 3 days, third screening round
Summary of the method: (§1)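 Antisense oligonucleotides given once at 10 μM without transfection reagent (gymnotic) to HDLM-2 or A-172 cells for 3 days. hCD39 mRNA measured by QuantiGene Singleplex, normalized to HPRT1 and expressed relative to untreated cells; triplicate means.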

[7] = system: hCD39 protein; assay: hCD39 protein expression in primary human CD8+ and CD4+ T cells after oligonucleotide removal (flow cytometry); format: cell-based; details: 10 μM for six days with anti-CD3, compared to untreated control cells
Description: Thereafter, oligonucleotides and anti-CD3 were removed and hCD39 protein expression was analyzed by flow cytometry three, six, and eleven days after oligonucleotide removal. CD39 protein expression is depicted as mean fluorescence intensity (MFI) and was calculated by subtracting the MFI of the unspecific isotype control from the MFI of CD39. Depicted is the mean of duplicate wells+/−SD.
A04040H had shown very potent activity in suppressing hCD39 expression on mRNA- and protein-level in human cancer cell lines. In the next step, its activity in primary human T cells was investigated. Furthermore, the persistence of the effects after antisense oligonucleotide removal was examined. Therefore, CD8^+ and CD4^+ T cells were isolated from peripheral blood and activated for a total treatment time of six days with anti-CD3 in the presence of 10 μM of the hCD39 specific antisense oligonucleotide A04040H (black column) or the control oligonucleotide S6 (white column), which is not complementary to any human mRNA. […] Thereafter, oligonucleotides were removed and hCD39 protein expression was analyzed three, six, and eleven days after oligonucleotide removal by flow cytometry (FIG. 9).

[8] = system: hCD39 mRNA; assay: hCD39 mRNA knockdown efficacy screen in HDLM-2 cells (single dose, gymnotic delivery, QuantiGene Singleplex); format: cell-based, human; details: 10 μM, 3 days, third screening round
Summary of the method: as §1

[9] = absence of extracellular ATP, vs vehicle
[10] = supplementation with 400 μM of ATP

Row | Compound | Relative ATP levels in supernatants of JIYOYE cells 30 minutes after addition of ATP (vs. Medium control) [1] | absolute cell numbers of CD8+ T cells [2, 9] | proliferation of CD8+ T cells [2, 9] | absolute numbers of CD8+ T cells [2, 10] | proliferation of CD8+ T cells [2, 10] | mCD39 mRNA levels in spleens ([3]; 10 mg/kg subcutaneous) | mCD39 mRNA levels in spleens ([3]; 25 mg/kg subcutaneous) | Relative mCD39 mRNA expression (compared to non-treated cells) [4] | mCD39 protein expression on tumor associated macrophages (TAMs) [5] | mCD39 protein expression on tumor-infiltrating regulatory T cells (Tregs) [5] | Residual hCD39 mRNA expression relative to untreated cells (set as 1) [6] | hCD39 protein expression (MFI) after oligonucleotide removal [7] | Residual hCD39 mRNA expression relative to untreated cells (set as 1) [8]
1 | CCN(CC)c1ncnc2c1ncn2[C@@H]1O[C@H](COP(=O)(O)OP(=O)(O)C(Br)(Br)P(=O)(O)O)[C@@H](O)[C@H]1O [ARL67156] | 0.38 | no differences | no differences | significantly diminished | reduced proliferation | – | – | – | – | – | – | – | –
2 | +A*+G*+T*A*A*T*C*C*A*C*C*C*A*+T*+A*+G (antisense AGTAATCCACCCATAG; sugars from the 5' end l3 d10 l3, all phosphorothioate, methylation of C not given here) [A04011MR] | – | – | – | – | – | significantly reduced | significantly reduced | 0.01 | dose-dependently suppressed | dose-dependently suppressed | – | – | –
3 | +T*+C*+T*A*T*C*G*T*G*A*T*G*T*T*+T*+C*+T (antisense TCTATCGTGATGTTTCT; sugars from the 5' end l3 d11 l3, all phosphorothioate, methylation of C not given here) [S6] | – | no differences | no differences | significantly diminished | reduced proliferation | – | – | – | – | – | 0.95 | no inhibitory effect | 0.95
